These are literature values, as cited in paper PMC5510229, “BCAT1 controls metabolic reprogramming in activated human macrophages and is associated with inflammatory diseases” (Nature Communications, 2017).

SMILES strings stand for the structures.

On the set-up of data set [1]: method as in PMID 10381778. To be noted: cited from earlier work.
For data set [2], the system named is a2δ−1 and a2δ−2 subunits of voltage-activated calcium channels. The arrangement: method as in PMID 19128880. To be noted: cited from earlier work.

With `NCC1(CC(=O)O)CCCCC1` [gabapentin], the anti-inflammatory effects entry in data set [1] is “no apparent anti-inflammatory effects”. The binding affinity entry in data set [2] is “high affinity”.
